These results are taken from patent publication US8859529B2, “Compounds for the treatment of inflammatory disorders” (Merck Sharp & Dohme Corp., priority 2008, dated 2014).

One series concerns TNF-α production from human whole blood. In words: Inhibition of TNF-α production from human whole blood (hWBA). The series is classed as cell-based. The conditions noted are these: human whole blood diluted 1:1, 1 h pre-incubation, LPS, 3.5 h, TNF-α by ELISA; N/A = Not Active. The method, then: The compounds' ability to inhibit TACE activity can also be determined in human whole blood using the assay conditions described n Example 15 below.
Human whole blood was diluted 1:1 with serum free medium (RPMI, L-glutamine, Pen-Strep, HEPES) and incubated with a test compound in a final volume of 360 μl for 1 h at 37° C. Forty microliters of LPS (10 μg/mL) was then added. Supernatant was collected after 3.5 h incubation and the concentration of TNF-α was determined by ELISA (R&D Systems). The concentration of the test compound which inhibits 50% of the amount of TNF-α from the untreated control was determined.
For orientation: In an ELISA, binding on a coated surface is turned into a signal by an enzyme label.
Usually IC50 stands for the point on the concentration scale where inhibition reaches its midpoint. Read a high IC50 as a need for much substance. `COc1ccc2c(c1)C(=O)N(C[C@@]1(c3cc4ncccc4o3)NC(=O)N(COC(=O)C(C)(C)C)C1=O)C2` [Compound 1] showed an IC50 of 281 nM.
As to `COc1ccc2c(c1)C(=O)N(C[C@@]1(c3cc4cnccc4o3)NC(=O)N(COC(=O)C(C)(C)C)C1=O)C2` [Compound 2], half-maximal inhibition (IC50) required 273 nM.
On the same count and under the same terms, to `COc1ccc2c(c1F)C(=O)N(C[C@@]1(c3cc4cc5c(cc4o3)C(=O)NCC5)NC(=O)N(COC(=O)C(C)(C)C)C1=O)C2` [Compound 32] belongs 135 nM.
The compound `COc1ccc2c(c1)C(=O)N(C[C@@]1(c3cc4cnccc4o3)NC(=O)N(COC(=O)C3(C)CCCCC3)C1=O)C2` [Compound 35.2] gave a concentration for half-maximal inhibition (IC50) of 35.2 nM.
Still for that read-out and setting: next, `COc1ccc2c(c1F)C(=O)N(C[C@@]1(c3cc4nc(C(N)=O)ccc4o3)NC(=O)N(COC(=O)C(C)(C)C)C1=O)C2` [Compound 35]: 79 nM; `CCCN1CCN(c2ccc3oc([C@]4(CN5Cc6ccc(OC)c(F)c6C5=O)NC(=O)N(COC(=O)C(C)(C)C)C4=O)cc3n2)CC1` [Compound 40]: 258 nM; `COc1ccc2c(c1)C(=O)N(C[C@@]1(C#Cc3ccc(-c4ncccc4OC(=O)C(C)(C)C)cc3)NC(=O)N(COC(=O)C(C)(C)C)C1=O)C2` [Compound 42]: 794 nM.
As to `CCOCCOC(=O)OCN1C(=O)N[C@@](CN2Cc3ccc(OC)cc3C2=O)(c2cc3cnccc3o2)C1=O` [Compound 63.6], half-maximal inhibition (IC50) was put at 208 nM.
The same measure, in the same setting: to `COCCOCC(=O)OCN1C(=O)N[C@@](CN2Cc3ccc(OC)cc3C2=O)(c2cc3cnccc3o2)C1=O` [Compound 67.2] belongs 313 nM; to `COc1ccc2c(c1)C(=O)N(C[C@@]1(c3cc4cnccc4o3)NC(=O)N(C(C)OC(=O)N(C)C)C1=O)C2` (some centres unmarked) [Compound 70], 774 nM; to `COc1ccc2c(c1)C(=O)N(C[C@@]1(c3cc4cnccc4o3)NC(=O)N(C(C)OC(=O)N3CCN(C)CC3)C1=O)C2` (some centres unmarked) [Compound 71], 9920 nM.
On the same count and under the same terms, next, `CCOP(=O)(OCC)OCN1C(=O)N[C@@](CN2Cc3ccc(OC)c(F)c3C2=O)(c2cc3nc(N4CCN(CC)CC4)ccc3o2)C1=O` [Compound 73]: 255 nM; `COc1ccc2c(c1)C(=O)N(C[C@@]1(c3cc4cnccc4o3)NC(=O)N(COP(=O)(O)O)C1=O)C2` [Compound 74.1]: 720 nM; `COc1ccc2c(c1)C(=O)N(C[C@@]1(c3cc4cnccc4o3)NC(=O)N(COP(=O)(OCc3ccccc3)OCc3ccccc3)C1=O)C2` [Compound 74]: 3150 nM.
Same read-out and setting: next, `COc1ccc2c(c1)C(=O)N(C[C@]1(c3cc4ncccc4o3)C(=O)N(C(C)OC(C)=O)C(=O)N1C(C)=O)C2` (some centres unmarked) [Compound 78]: 2120 nM.
As to `COc1ccc2c(c1F)C(=O)N(C[C@]1(c3cc4nc(C(N)=O)ccc4o3)C(=O)N(COC(=O)C(C)(C)C)C(=O)N1COC(=O)C(C)(C)C)C2` [Compound 81], the IC50 is 159 nM.
On the same count and under the same terms, next, `CCOc1ccc2c(c1F)C(=O)N(C[C@]1(c3cc4nc(N5CCN(CC)CC5)ccc4o3)C(=O)N(COC(=O)C(C)(C)C)C(=O)N1COC(=O)C(C)(C)C)C2` [Compound 85]: 381 nM.
In the case of `CCOCCOC(=O)OCN1C(=O)N(C(=O)OCCOCC)[C@@](CN2Cc3ccc(OC)cc3C2=O)(c2cc3cnccc3o2)C1=O` [Compound 89.1], the half-maximal inhibitory concentration (IC50) amounted to 3150 nM.
On the same count and under the same terms, to `COc1ccc2c(c1)C(=O)N(C[C@]1(c3cc4cnccc4o3)C(=O)N(COC(=O)OCCN(C)C(=O)OCc3ccccc3)C(=O)N1C(=O)OCCN(C)C(=O)OCc1ccccc1)C2` [Compound 89] belongs 4890 nM.

System in a further series: not listed separately
The series can be described thus: Area under the curve determinations of plasma levels in rats (rrAUC). The series is classed as in vivo. To be noted: rapid rat AUC of the drug (parent) in plasma; oral 10 mg/kg, fasted rats, blood 0.5-6 h post-dosing. As to the method:
To gain insight into the pharmacokinetic properties of the compounds of formula (I), plasma levels of the compounds in rats were determined according to the protocol described in Korfmacher, W. A,; Cox, K. A.; Ng, K. J.; Veals, J.; Hsieh, Y.; Wainhaus, S.; Broske, L; Prelusky, D.; Nomeir, A.; White, R. E. Rapid Commun. Mass Spectrorn, 2001, 15, 335. Briefly, rats, after an overnight fast, were dosed orally with the test compound at a dose of 10 mg/kg in a 5 mL/kg dose volume. Blood was collected at 0.5, 1, 2, 3, 4, and 6 h post-dosing. Mass spectrometry using high performance liquid chromatography was used to identify and measure the concentrations of the test compounds in the plasma at the various time points. The parent ion of each test compound was used to identify and quantitate the compounds in plasma.
On to `COc1ccc2c(c1)C(=O)N(C[C@@]1(c3cc4ncccc4o3)NC(=O)N(COC(=O)C(C)(C)C)C1=O)C2` [Compound 1], for which the “PK (rrAUC) parent” value amounted to 13101 nM·h.
Same read-out and setting: next, `COc1ccc2c(c1)C(=O)N(C[C@@]1(c3cc4cnccc4o3)NC(=O)N(COC(=O)C(C)(C)C)C1=O)C2` [Compound 2]: 13539 nM·h; `COc1ccc2c(c1F)C(=O)N(C[C@@]1(c3cc4cc5c(c(F)c4o3)C(=O)NC5)NC(=O)N(COC(=O)C(C)(C)C)C1=O)C2` [Compound 7]: 1898 nM·h.
Same read-out and setting: next, `COc1ccc2c(c1F)C(=O)N(C[C@@]1(c3cc4c5c(ccc4o3)CNC5=O)NC(=O)N(COC(=O)C(C)(C)C)C1=O)C2` [Compound 8]: 2193 nM·h; `COc1ccc2c(c1)C(=O)N(C[C@@]1(c3cc4nc(N5C[C@@H](O)CC5=O)ccc4o3)NC(=O)N(COC(=O)C(C)(C)C)C1=O)C2` [Compound 23]: 60895 nM·h.
Same read-out and setting: to `COc1ccc2c(c1F)C(=O)N(C[C@@]1(c3cc4cc([C@@]5(C)NC(=O)NC5=O)c(F)cc4o3)NC(=O)N(COC(=O)C(C)(C)C)C1=O)C2` [Compound 30] belongs 335 nM·h; to `COc1ccc2c(c1)C(=O)N(C[C@@]1(c3cc4ncccc4o3)NC(=O)N(C)C1=O)C2` [Compound 45], 947 nM·h; to `CCN1C(=O)N[C@@](CN2Cc3ccc(OC)cc3C2=O)(c2cc3ncccc3o2)C1=O` [Compound 46], 868 nM·h.
Consider `COCCOCCOCCN1C(=O)N[C@@](CN2Cc3ccc(OC)cc3C2=O)(c2cc3ncccc3o2)C1=O` [Compound 47], for which the “PK (rrAUC) parent” value is 19 nM·h.
The same measure, in the same setting: next, `COc1ccc2c(c1)C(=O)N(C[C@@]1(c3cc4cnccc4o3)NC(=O)N(Cc3cccnc3)C1=O)C2` [Compound 48.1]: 0 nM·h.
On the same count and under the same terms, to `COCCOCCOCCN1C(=O)N[C@@](CN2Cc3ccc(OC)cc3C2=O)(c2cc3cnccc3o2)C1=O` [Compound 49] belongs 88 nM·h; to `COc1ccc2c(c1)C(=O)N(C[C@@]1(c3cc4cnccc4o3)NC(=O)N(CCN3CCOCC3)C1=O)C2` [Compound 50], 0 nM·h; to `COCN1C(=O)N[C@@](CN2Cc3ccc(OC)cc3C2=O)(c2cc3cnccc3o2)C1=O` [Compound 52], 1072 nM·h.
Consider `CCOCN1C(=O)N[C@@](CN2Cc3ccc(OC)cc3C2=O)(c2cc3cnccc3o2)C1=O` [Compound 53], for which the “PK (rrAUC) parent” value turned out to be 5183 nM·h.
Still for that read-out and setting: next, `CCCCCCCCOCN1C(=O)N[C@@](CN2Cc3ccc(OC)cc3C2=O)(c2cc3cnccc3o2)C1=O` [Compound 54]: 571 nM·h; `COCN1C(=O)N[C@@](CN2Cc3ccc(OC)c(F)c3C2=O)(c2cc3cc4c(c(F)c3o2)C(=O)NC4)C1=O` [Compound 56]: 0 nM·h.
In the case of `COc1ccc2c(c1F)C(=O)N(C[C@@]1(c3cc4cc5c(c(F)c4o3)C(=O)NC5)NC(=O)N(COCc3ccccc3)C1=O)C2` [Compound 57], the “PK (rrAUC) parent” value stood at 2244 nM·h.
The same measure, in the same setting: to `CCOC(=O)CN1C(=O)N[C@@](CN2Cc3ccc(OC)cc3C2=O)(c2cc3cnccc3o2)C1=O` [Compound 58.2] belongs 0 nM·h; to `COCN1C(=O)N[C@@](CN2Cc3ccc(OC)cc3C2=O)(c2cc3ncccc3o2)C1=O` [Compound 58], 2125 nM·h; to `COc1ccc2c(c1)C(=O)N(C[C@@]1(c3cc4cnccc4o3)NC(=O)N(C(C)OC(=O)OC3COCOC3)C1=O)C2` (some centres unmarked) [Compound 60.1], 0 nM·h.
Regarding `CCOC(=O)N(C)CCOC(=O)OCN1C(=O)N[C@@](CN2Cc3ccc(OC)cc3C2=O)(c2cc3cnccc3o2)C1=O` [Compound 63.5], the “PK (rrAUC) parent” value is 0 nM·h.
Same read-out and setting: to `COc1ccc2c(c1)C(=O)N(C[C@@]1(c3cc4cnccc4o3)NC(=O)N(COC(=O)OC(C)(C)C)C1=O)C2` [Compound 63] belongs 0 nM·h.
On the same count and under the same terms, to `COc1ccc2c(c1)C(=O)N(C[C@@]1(c3cc4cnccc4o3)NC(=O)N(COC(=O)c3ccccc3)C1=O)C2` [Compound 66] belongs 1861 nM·h; to `COc1ccc2c(c1)C(=O)N(C[C@@]1(c3cc4cnccc4o3)NC(=O)N(COC(=O)N(C)C)C1=O)C2` [Compound 69], 13539 nM·h.
Regarding `COc1ccc2c(c1F)C(=O)N(C[C@@]1(c3cc4cc5c(c(F)c4o3)C(=O)NC5)NC(=O)N(C3OC(=O)c4ccccc43)C1=O)C2` (some centres unmarked) [Compound 75], the “PK (rrAUC) parent” value stood at 189 nM·h.
On the same count and under the same terms, to `COc1ccc2c(c1)C(=O)N(C[C@@]1(c3cc4cnccc4o3)NC(=O)N(C(=O)OC3COCOC3)C1=O)C2` [Compound 77] belongs 0 nM·h; to `COc1ccc2c(c1)C(=O)N(C[C@]1(c3cc4ncccc4o3)C(=O)N(COC(=O)C(C)(C)C)C(=O)N1COC(=O)C(C)(C)C)C2` [Compound 80], 3092 nM·h.
The same measure, in the same setting: to `CCCC(=O)OCN1C(=O)N(C(=O)CCC)[C@@](CN2Cc3ccc(OC)cc3C2=O)(c2cc3cnccc3o2)C1=O` [Compound 82] belongs 783 nM·h.
Still for that read-out and setting: next, `COc1ccc2c(c1)C(=O)N(C[C@]1(c3cc4cnccc4o3)C(=O)N(COC(=O)c3ccccc3)C(=O)N1C(=O)c1ccccc1)C2` [Compound 84]: 126 nM·h.
For `COc1ccc2c(c1)C(=O)N(C[C@]1(c3cc4cnccc4o3)C(=O)N(COC(=O)C3CCCCC3)C(=O)N1C(=O)C1CCCCC1)C2` [Compound 87], the “PK (rrAUC) parent” value was 0 nM·h.
Same read-out and setting: next, `COc1ccc2c(c1)C(=O)N(C[C@]1(c3cc4cnccc4o3)C(=O)N(C(C)OC(=O)OC3COCOC3)C(=O)N1C(=O)OC1COCOC1)C2` (some centres unmarked) [Compound 88]: 0 nM·h.
